Reference: US20030161866A1, “Novel pharmaceutical formulation to limit or delay surface absorption” (priority 2000, published 2003)
In brackets after ≈: the same amount, converted by molar mass. Like-named read-outs stand apart in the source and are kept apart here.

Legend:
[1] = Evaporation (weight loss) of DEET/IPA/clay samples under nitrogen; type: physicochemical; details: no added IPA, over 12 hours under nitrogen, relative to amount of DEET
Description: The samples prepared above were held at room temperature in the hood under nitrogen over a 12 hour period. Evaporation rates were measured every hour.
Samples of the HDTMA clay/DEET/IPA matrix were mixed as illustrated in Example 1. Volatile components of the matrix were evaporated using a constant flow of nitrogen over 12 hours in fume hood. Control samples of DEET with IPA only and DEET alone were subjected to the same conditions as the DEET with HDTMA treated clay.
Weight loss of the samples over 12 hours was used as a measure of the extent of evaporation. Samples were weighed at the beginning of the experiment (time 0) and at hourly intervals thereafter. Reported values are the difference between the original weight of formulation and the weight at sampling time, expressed as a percentage of the amount of IPA added to each. For the controls without IPA, percent weight loss was calculated relative to the amount of DEET in the original sample.

[2] = Visual (turbidity) solubility of DEET in IPA and water; type: physicochemical; details: aqueous with cosolvent or surfactant or cyclodextrin, thermodynamic from solid, read-out: limit of DEET solubility
Description: Homogenous solutions of different concentrations of DEET with varying percentages of IPA in water were prepared and subsequently incorporated into the clay. Solutions of 30%, 40%, and 50% IPA in water were prepared. DEET was completely miscible with IPA, which was also completely miscible with water. The addition of DEET to the solvent mixture was therefore expected to produce a single homogenous phase within the limits of its solubility. Solutions were prepared consisting of the solvent systems and varying concentrations of DEET, from 12.5-200 mg/ml. DEET was added to the solvent in increments of 50 mg until the solution appeared turbid after vortexing for 5 seconds. Turbidity was used as a marker for saturation.
Once various solvents were mixed with DEET, turbidity of the samples was used as a marker for saturation. All DEET spiking solutions were below saturation point.

[3] = within two hours of administration; cited from earlier work
[4] = 24 hours after administration of the last dose; cited from earlier work

SMILES: CCN(CC)C(=O)c1cccc(C)c1 [DEET, N,N-diethyl-m-toluamide]
- weight loss [1]: 4%
- solubility at 5 seconds ([2]; 30% IPA in water, 30% IPA in water): 115 mg/mL (≈ 601 mM)
- solubility at 5 seconds ([2]; 40% IPA in water, 40% IPA in water): 200 mg/mL (≈ 1050 mM)
- solubility at 5 seconds ([2]; 50% IPA in water, 50% IPA in water): 200 mg/mL (≈ 1050 mM)
- dose administered topically that is absorbed [3]: Approximately 17%
- absorbed dose recovered in the urine [4]: ~90%
